Data from article PMC12722994, “The aryl hydrocarbon receptor is associated with monocytic AML and innate immune resistance reversible with an AHR inhibitor” (Frontiers in Immunology, 2025).

Biological target: T1, aryl hydrocarbon receptor (AHR) (Homo sapiens, UniProt P35869)
T1 sequence (P35869 11-848): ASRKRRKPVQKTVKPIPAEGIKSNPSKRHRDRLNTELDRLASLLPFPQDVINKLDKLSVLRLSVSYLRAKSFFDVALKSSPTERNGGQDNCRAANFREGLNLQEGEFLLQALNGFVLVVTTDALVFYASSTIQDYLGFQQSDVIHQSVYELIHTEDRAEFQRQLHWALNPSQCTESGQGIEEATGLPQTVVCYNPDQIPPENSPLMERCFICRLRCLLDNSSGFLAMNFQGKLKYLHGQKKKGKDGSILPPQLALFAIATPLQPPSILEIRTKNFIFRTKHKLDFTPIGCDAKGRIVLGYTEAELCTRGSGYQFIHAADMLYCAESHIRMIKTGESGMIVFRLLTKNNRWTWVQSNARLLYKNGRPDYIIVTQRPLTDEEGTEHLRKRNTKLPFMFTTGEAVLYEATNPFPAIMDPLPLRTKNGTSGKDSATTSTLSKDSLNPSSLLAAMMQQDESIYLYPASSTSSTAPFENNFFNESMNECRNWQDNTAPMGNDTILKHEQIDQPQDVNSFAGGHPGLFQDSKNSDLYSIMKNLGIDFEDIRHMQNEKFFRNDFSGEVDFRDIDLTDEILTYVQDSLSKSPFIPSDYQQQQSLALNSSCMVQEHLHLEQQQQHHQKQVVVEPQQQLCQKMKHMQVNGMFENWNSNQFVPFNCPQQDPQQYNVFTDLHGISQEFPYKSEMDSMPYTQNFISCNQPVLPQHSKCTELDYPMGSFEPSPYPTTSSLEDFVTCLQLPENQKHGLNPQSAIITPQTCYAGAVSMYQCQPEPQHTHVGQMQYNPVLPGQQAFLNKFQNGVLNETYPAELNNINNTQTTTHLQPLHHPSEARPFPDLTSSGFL
Experiment: Inhibition of AHR target gene CYP1B1 expression (RT-qPCR) in MOLM-14 cells, endogenous AHR; functional readout only
Type: cell-based

IK-364
IC50: 5 nM
